Measurements taken from patent publication US11242555B2, “Molecular sensors and uses thereof” (New York University, priority 2018, dated 2022).
Structures can show the parent of a compound that is named as a salt. Where two headings read alike, the source gives them in different places.

Assays:
[1] = system: double-stranded oligo probe (DNA); assay: High-throughput screen of a compound library with the linear oligo probe (FRET ratio, 384 well plate); format: binding
Experimental: A library of compounds was mixed with the oligo probe in 384 well plate format. (A) The fluorescence spectra of the probe were recorded on a plate reader as in FIG. 21 and the FRET ratio (Cy5/Cy3 intensity) was calculated. […] (B) A library consisting of 1600 compounds from FDA and internationally approved drugs was screened to detect potential intercalators that can be drug repositioning targets.
The molecular sensors were used in vitro according to the following: 1) The sensors were diluted in a NaCl solution (e.g., in a 50-100 mM NaCl solution) and 0.2% BSA solution to a concentration of 1 μM. This can be adjusted depending on the sensitivity of the fluorescence measurement device. 2) The fluorescence spectrum was measured using a fluorescence spectrophotometer, a plate reader, or any other ad-hoc means. […] 3) The molecular species was added to be characterized for DNA binding properties or to be tested for intercalating or groove binding ability. The appropriate sensor is used (e.g., a linear or flexible molecular sensor). The fluorescence spectrum was measured again using the same methods and settings. 4) The FRET ratio was compared for both the sensor alone and sensor plus tested molecule. The FRET ratio is calculated by dividing the peak intensity of the acceptor fluorescence by that of the donor fluorescence.

[2] = system: flexible molecular sensor (DNA); assay: Flexible (tongs-shaped) molecular sensor in solution, groove binders and polypeptides (FRET ratio); format: binding; conditions: for FRET ratio as a function of drug concentration, with Mg / FRET ratio as a function of drug concentration, absence of Mg: flexible sensor; for FRET ratio as a function of drug concentration, with Mg: 20 mM MgCl added to solution; for FRET ratio as a function of drug concentration, absence of Mg: no Mg; for FRET ratio as a function of compound concentration: flexible sensor in solution
[3] = linear oligo probe, 384 well plate, Cy5/Cy3 intensity, library peak ˜1.1, a small ratio indicates intercalation

Molecule	FRET ratio [1, 3]	other results
CC(C)NCC(O)COc1cccc2ccccc12.Cl (racemic) [PROPRANOLOL HYDROCHLORIDE (+/−)]	0.9132	–
COc1ccc(-c2cc(=O)c3ccccc3o2)cc1 [4′-METHOXYFLAVONE]	0.543	–
CC(=O)c1ccc2c(c1)N(CCCN(C)C)c1ccccc1S2 [ACEPROMAZINE MALEATE]	0.8037	–
CCCCCCc1ccc(O)cc1O.Nc1c2ccccc2nc2ccccc12 [ACRISORCIN]	–	FRET ratio [1]: 0.2919
COc1cc2nc(N(C)CCCNC(=O)C3CCCO3)nc(N)c2cc1OC (centres unmarked) [ALFUZOSIN HYDROCHLORIDE]	0.6784	–
O=C1c2c(O)cccc2C([C@@H]2O[C@H](CO)[C@@H](O)[C@H](O)[C@H]2O)c2cc(CO)cc(O)c21 (some centres unmarked) [ALOIN]	0.7719	–
N=C(N)NC(=O)c1nc(Cl)c(N)nc1N [AMILORIDE HYDROCHLORIDE]	0.7057	–
Nc1c2ccccc2nc2ccccc12 [AMINACRINE]	0.2941	–
CCN(CC)Cc1cc(Nc2ccnc3cc(Cl)ccc23)ccc1O [AMODIAQUINE DIHYDROCHLORIDE]	0.8333	–
CN1CCc2cccc3c2[C@H]1Cc1ccc(O)c(O)c1-3 [APOMORPHINE HYDROCHLORIDE]	0.9228	–
NC(CO)C(=O)NNCc1ccc(O)c(O)c1O (centres unmarked) [BENSERAZIDE HYDROCHLORIDE]	0.7832	–
COc1ccc2cc3[n+](cc2c1OC)CCc1cc2c(cc1-3)OCO2 [BERBERINE CHLORIDE]	0.4262	–
Cc1ccc(S(=O)(=O)[N-]Cl)cc1.[Na+] [CHLORAMINE-T]	0.3985	–
CCOP(=S)(OCC)Oc1nc(Cl)c(Cl)cc1Cl [CHLORPYRIFOS]	–	FRET ratio [1]: 0.5126
COc1cc(OC)c2c(=O)cc(-c3ccccc3)oc2c1 [CHRYSIN DIMETHYL ETHER]	0.8385	–
N.N.[Cl][Pt][Cl] [CISPLATIN]	0.6996	–
COC1C(O)CC(OC2CC(Oc3cc4cc5c(c(O)c4c(O)c3C)C(=O)[C@@H](OC3CC(OC4CC(OC6CC(C)(O)C(OC(C)=O)C(C)O6)C(O)C(C)O4)C(O)C(C)O3)[C@H]([C@H](OC)C(=O)[C@@H](O)[C@@H](C)O)C5)OC(C)C2OC(C)=O)OC1C (some centres unmarked) [Chromomycin]	–	FRET ratio as a function of drug concentration, with Mg [2]: FRET ratio increases as a function of drug concentration; FRET ratio as a function of drug concentration, absence of Mg [2]: no change in the FRET ratio
Cc1cc(N)c2ccccc2[n+]1CCCCCCCCCC[n+]1c(C)cc(N)c2ccccc21 [DEQUALINIUM CHLORIDE]	0.6126	–
CC(=O)Oc1cccc2c1C(=O)c1c(OC(C)=O)cc(C(=O)O)cc1C2=O [DIACERIN]	–	FRET ratio [1]: 0.7
COc1cc2nc(N3CCN(C(=O)C4COc5ccccc5O4)CC3)nc(N)c2cc1OC (centres unmarked) [DOXAZOSIN MESYLATE]	0.8089	–

Molecule	FRET ratio [1, 3]	other results
CCOc1cc(C=O)ccc1O [ETHYL VANILLIN]	0.9212	–
N=C(N)c1ccc(-c2ccc(-c3ccc(C(=N)N)cc3)o2)cc1 [Fourmadine]	–	FRET ratio as a function of compound concentration [2]: concentration-dependent increase of the FRET ratio
CO/N=C1\CN(c2nc3c(cc2F)c(=O)c(C(=O)O)cn3C2CC2)CC1CN (centres unmarked) [GEMIFLOXACIN MESYLATE]	0.9051	–
N=C(N)N/N=C/c1c(Cl)cccc1Cl [GUANABENZ ACETATE]	0.7731	–
N=C(N)N [GUANIDINE HYDROCHLORIDE]	0.451	–
CC(=O)Oc1cc2c(cc1OC(C)=O)[C@@H]1c3ccc(OC(C)=O)c(OC(C)=O)c3OC[C@]1(OC(C)=O)C2 [HAEMATOXYLIN PENTAACETATE]	–	FRET ratio [1]: 0.6134
COc1ccc2c3c([nH]c2c1)C(C)=NCC3 [HARMALINE]	–	FRET ratio [1]: 0.646
COc1ccc2c(c1)[nH]c1c(C)nccc12 [HARMINE]	–	FRET ratio [1]: 0.754
Cc1nccc2c1[nH]c1cc(O)ccc12 [HARMOL HYDROCHLORIDE]	–	FRET ratio [1]: 0.3867
CCN(CC)CCNc1ccc(CO)c2sc3ccccc3c(=O)c12 [HYCANTHONE]	0.4566	–
CC[C@H]1CN2CC[C@H]1C[C@@H]2[C@@H](O)c1ccnc2ccc(OC)cc12 [HYDROQUINIDINE]	0.7512	–
COc1c2occc2c(OC)c2c(=O)cc(C)oc12 [KHELLIN]	0.7494	–
CC(C)(C#N)O[C@@H]1O[C@H](CO)[C@@H](O)[C@H](O)[C@H]1O [LINAMARIN]	–	FRET ratio [1]: 0.4228
COc1c2occc2cc2ccc(=O)oc12 [METHOXSALEN]	0.9338	–
CC[C@@H](CO)NC(=O)[C@@H]1C=C2c3cccc4c3c(cn4C)C[C@H]2N(C)C1 [METHYSERGIDE MALEATE]	–	FRET ratio [1]: 0.8993
NC(N)=NC(=O)c1nc(Cl)c(N2CCCCCC2)nc1N [N,N-HEXAMETHYLENEAMILORIDE]	0.38	–
c1ccc2c(CC3=NCCN3)cccc2c1 [NAPHAZOLINE HYDROCHLORIDE]	0.8789	–
Cn1cc(NC(=O)c2cc(NC(=O)CN=C(N)N)cn2C)cc1C(=O)NCCC(=N)N [Netrospin]	–	FRET ratio as a function of compound concentration [2]: concentration-dependent increase of the FRET ratio
CCCCC(CC)COC(=O)C(C#N)=C(c1ccccc1)c1ccccc1 (centres unmarked) [OCTOCRYLENE]	0.9187	–
Cc1c(-c2cnccn2)ssc1=S [OLTIPRAZ]	0.7447	–

Molecule	FRET ratio [1, 3]	other results
COc1cc2c(cc1OC)-c1cc3ccc(OC)c(OC)c3c[n+]1CC2 [PALMATINE CHLORIDE]	0.5141	–
OCCN1CCN(CCCN2c3ccccc3Sc3ccc(Cl)cc32)CC1 [PERPHENAZINE]	0.9495	–
CC1=CC(=O)c2c(O)cccc2C1=O [PLUMBAGIN]	0.9364	–
COc1cc2nc(N3CCN(C(=O)c4ccco4)CC3)nc(N)c2cc1OC [PRAZOSIN HYDROCHLORIDE]	0.818	–
COc1cc(NC(C)CCCN)c2ncccc2c1 (centres unmarked) [PRIMAQUINE PHOSPHATE]	0.8618	–
CC(=O)[C@H]1CC[C@H]2[C@@H]3CCC4=CC(=O)CC[C@]4(C)[C@H]3CC[C@]12C [PROGESTERONE]	0.9184	–
COc1ccc2nc3cc(Cl)ccc3c(Nc3cc(CN4CCCC4)c(O)c(CN4CCCC4)c3)c2n1.O=P(O)(O)O.O=P(O)(O)O.O=P(O)(O)O.O=P(O)(O)O [PYRONARIDINE TETRAPHOSPHATE]	–	FRET ratio [1]: 0.3325
N=C(N)c1ccc(OCCCCCOc2ccc(C(=N)N)cc2)cc1 [Pentamidine]	–	FRET ratio as a function of compound concentration [2]: concentration-dependent increase of the FRET ratio
CCN(CC)CCCC(C)Nc1c2ccc(Cl)cc2nc2ccc(OC)cc12 (centres unmarked) [QUINACRINE HYDROCHLORIDE]	0.2743	–
C=C[C@H]1C[N@@]2CC[C@H]1C[C@@H]2[C@@H](O)c1ccnc2ccc(OC)cc12 [QUINIDINE GLUCONATE]	0.9333	–
C[C@@H]1O[C@@H](O[C@H]2[C@H](Oc3cc(O)c4c(=O)cc(-c5ccc(O)cc5)oc4c3)O[C@H](CO)[C@@H](O)[C@@H]2O)[C@H](O)[C@H](O)[C@H]1O [RHOIFOLIN]	0.6817	–
CC[C@@]1(O)C[C@H](O)c2c(cc3c(c2O)C(=O)c2c(O)ccc(O)c2C3=O)[C@H]1C(=O)OC [RUTILANTINONE]	–	FRET ratio [1]: 0.6761
O=c1n(Cl)c(=O)n(Cl)c(=O)n1Cl [SYMCLOSENE]	–	FRET ratio [1]: 0.1489
Nc1c2c(nc3ccccc13)CCCC2 [TACRINE HYDROCHLORIDE]	0.6067	–
CCN(CC)CCOc1ccc2c(c1)C(=O)c1cc(OCCN(CC)CC)ccc1-2 [TILORONE]	0.443	–
CN1[C@@H]2CC[C@H]1C[C@@H](OC(=O)c1c[nH]c3ccccc13)C2 [TROPISETRON HYDROCHLORIDE]	0.7228	–
LUPEOL ACETATE	0.38	–
MODALINE SULFATE	–	FRET ratio [1]: 0.1375
Mitramycin	–	FRET ratio as a function of drug concentration, with Mg [2]: FRET ratio increases as a function of drug concentration; FRET ratio as a function of drug concentration, absence of Mg [2]: no change in the FRET ratio
Tri-lysine [Ly-3]	–	FRET ratio as a function of compound concentration [2]: increase the FRET ratio
